{"source": "patent US20050260202A1", "about": "“Methods for producing proliferating muscle cells” (The Regents of the University of California, priority 2004, published 2005)", "key": {"[1]": {"test_system": "C2C12 myoblasts", "experiment": "Myoblast fusion assay in C2C12 cells", "type": "cell-based, mouse", "settings": "C2C12, differentiation conditions, PIPLC 5 U/ml", "excerpt": "(§1) Actively growing C2C12, Sol8, and L6 skeletal myoblasts (ATCC) were maintained in DMEM with 10%, 20%, or 10% FBS, respectively. QM7 quail skeletal myoblasts (kindly provided by Charles Ordahl, UCSF) were maintained in M199 medium with 10% tryptose phosphate and 10% FBS. Myoblast differentiation was induced by culture of confluent monolayers in DMEM with 1% FBS for C2C12 and Sol8 cells, 2% horse serum for L6 cells, or M199 medium with 10% tryptase phosphate and 0.5% FBS for QM7 cells. For PIPLC treatment, 5 U/ml of PIPLC (Sigma) was added into the culture medium when cells reached confluence, and with daily media changes. […]\n(§2) Cells were plated on cover slips, cultured under conditions described above in Example 1, and labeled with BrdU for 60 min using Labeling and Detection Kit I (Roche) according to the manufacturer's instructions. […] Immunofluorescence signals were acquired with a Nikon Microphot-FX fluorescence microscope and Spot imaging software. Nuclei from low-power (10×) images were analyzed to quantitate BrdU incorporation and myoblast fusion. Each culture stage was analyzed in triplicate, with data representing the mean of 10 high-power fields. Cell proliferation was calculated as percent BrdU-positive nuclei per field. Cell fusion was calculated as average number of DAPI staining nuclei per myotube."}, "[2]": {"test_system": "C2C12 myoblasts", "experiment": "BrdU incorporation (cell proliferation) in C2C12 cells", "type": "cell-based, mouse", "settings": "C2C12, differentiation conditions, PIPLC 5 U/ml", "excerpt": "as §1, §2"}, "[3]": {"test_system": "Sol8 murine myoblasts", "experiment": "Myoblast fusion assay in Sol8 cells", "type": "cell-based, mouse", "settings": "Sol8, differentiation conditions, PIPLC 5 U/ml", "excerpt": "as §1, §2"}, "[4]": {"test_system": "Sol8 murine myoblasts", "experiment": "BrdU incorporation in Sol8 cells", "type": "cell-based, mouse", "settings": "Sol8, differentiation conditions, PIPLC 5 U/ml", "excerpt": "as §1, §2"}, "[5]": {"test_system": "L6 rat myoblasts", "experiment": "Myoblast fusion assay in L6 cells", "type": "cell-based", "settings": "L6, differentiation conditions, PIPLC 5 U/ml", "excerpt": "as §1, §2"}, "[6]": {"test_system": "L6 rat myoblasts", "experiment": "BrdU incorporation in L6 cells", "type": "cell-based", "settings": "L6, differentiation conditions, PIPLC 5 U/ml", "excerpt": "as §1, §2"}, "[7]": {"test_system": "QM7 avian myoblasts", "experiment": "Myoblast fusion assay in QM7 cells", "type": "cell-based, quail", "settings": "QM7, differentiation conditions, PIPLC 5 U/ml", "excerpt": "as §1, §2"}, "[8]": {"test_system": "QM7 avian myoblasts", "experiment": "BrdU incorporation in QM7 cells", "type": "cell-based, quail", "settings": "QM7, differentiation conditions, PIPLC 5 U/ml", "excerpt": "as §1, §2"}, "[9]": {"test_system": "Sca-1", "experiment": "Sca-1 expression by immunoblot and immunostaining", "type": "cell-based, mouse", "settings": "C2C12 cells", "experimental": "Immunoblot analysis was performed using previously described methods (Hlaing et al., J Biol Chem, 277:23794-23799, 2002). Briefly, cells were lysed by sonication in lysis buffer (50 mM Tris-HCl, pH 7.5, 150 mM NaCl, 3 mM EDTA, 3 mM EGTA, 1% SDS, 10% glycerol), boiled for 5 min, and centrifuged at 16,000×g for 2 min. Protein concentrations of supernatants were measured by BCA assay (Pierce), and equal amounts of protein (100-200 μg) were separated by SDS-polyacrylamide gel electrophoresis. Immunoblots were analyzed with 5 μg/ml monoclonal antibody against Sca-1 (Pharmingen) or β-actin (Sigma), and 1 μg/ml HRP-conjugated goat-anti mouse IgG (Bio-Rad).\nTo detect Sca-1, Myf5, MyoD, and myogenin in situ, wild type and stably transfected C2C12 cells were plated on cover slips, grown as described for the indicated lengths of time, and stained with either 2.5 μg/ml monoclonal anti-Sca-1 antibody (clone E13-161.7; Pharmingen) and 4 μg/ml FITC-conjugated goat anti-rat IgG (Pharmingen), or 10 μg/ml rabbit polyclonal anti-Myf5, anti-MyoD, or anti-myogenin antibody (Santa Cruz Biotechnology) and 2 μg/ml FITC-conjugated goat anti-rabbit IgG (Molecular Probes), as previously described (Liu et al., Cell Biochem Biophys, 39:119-131, 2003)."}, "[10]": {"target": "murine Sca-1 (stem cell antigen-1) (murine) (UniProt P05533)", "sequence (P05533 27-112 limits assumed)": "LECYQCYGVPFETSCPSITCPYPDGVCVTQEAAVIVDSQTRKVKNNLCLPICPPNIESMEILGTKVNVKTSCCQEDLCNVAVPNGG", "experiment": "cell-based or functional assay"}, "[11]": {"test_system": "C2C12 cells", "experiment": "Fyn mutant assay: GFP-positive myoblasts to myotubes", "type": "cell-based, mouse", "settings": "five days in differentiation medium", "excerpt": "This example describes the expression of wild type and mutant Fyn proteins to analyse the role of Fyn in Sca-1-mediated myogenesis. Briefly, a 1615 bp fragment of pCMV-FynDN (Ko et al., J. Biol Chem, 277:46085-46092, 2002), containing the full-length, dominant negative K299M mutant of mouse Fyn, was PCR-amplified using primers 5′-TTATGCGGCC GCATGGGCTGTG TGCAATGTAAGG-3′ (SEQ ID NO:7) and 5′-GCATGCATGC TACAGGTTT TCACCAGGTT GG-3′ (SEQ ID NO:8) and cloned into the NotI/SphI sites of pIRES-hrGFP-1a (Stratagene). The pCMV-FynDN plasmid was kindly provided by Marilyn Resh (Sloan-Kettering Cancer Center). Similarly, a 1.6 kb BamHI fragment of Fyn-Y531F (Maulon et al., Oncogene, 20:1964-1972, 2001), containing the full-length, constitutively active Y531F mutant of mouse Fyn, was cloned into the BamHI site of pIRES-hrGFP-1a (Stratagene). The Fyn-Y531F DNA was generously provided by Patrick Auberger (INSERM). […] Expression of mutants and GFP was determined by immunoblot of whole cell lysates from transfected C2C12 cells with anti-Fyn antibody (Santa Cruz Biotechnology), and immunofluorescence detection of GFP in live cells. […] Data was acquired with a Nikon Microphot-FX fluorescence microscope and Spot imaging software. […] The effect of Fyn mutants on cell fusion was measured as the ratio of GFP-positive mononuclear myoblasts to GFP-positive myotubes (cells with 2 or more nuclei)."}}, "data": [{"substance": "phosphatidylinositol-specific phospholipase-C [PIPLC]", "values": [{"measurement": "myoblast fusion", "setting": "[1]", "result": "3±1", "unit": "nuclei/myotube"}, {"measurement": "BrdU incorporation", "setting": "[2]", "result": "37±2", "unit": "% BrdU positive nuclei"}, {"measurement": "myoblast fusion", "setting": "[3]", "result": "5±1", "unit": "nuclei/myotube"}, {"measurement": "BrdU incorporation", "setting": "[4]", "result": "18±2", "unit": "% BrdU positive nuclei"}, {"measurement": "myoblast fusion", "setting": "[5]", "result": "2±1", "unit": "nuclei/myotube"}, {"measurement": "BrdU incorporation", "setting": "[6]", "result": "20±2", "unit": "% BrdU positive nuclei"}, {"measurement": "myoblast fusion", "setting": "[7]", "result": "1±0.2", "unit": "nuclei/myotube"}, {"measurement": "BrdU incorporation", "setting": "[8]", "result": "48±5", "unit": "% BrdU positive nuclei"}, {"measurement": "removal of Sca-1 from cell surface", "setting": "[9]", "result": "strips Sca-1 from the surface"}]}, {"substance": "monoclonal rat anti-Sca-1 antibody, clone E13-161.7 (Pharmingen)", "values": [{"measurement": "BrdU positive nuclei (proliferation), E13-161.7 and D7 in combination versus untreated (% BrdU positive nuclei)", "setting": "[10]", "result": 11}, {"measurement": "nuclei per myotube (myoblast fusion), E13-161.7 and D7 in combination versus untreated (nuclei per myotube)", "setting": "[10]", "result": 14}]}, {"substance": "constitutively active form of Fyn: Full-length constitutively active Y531F mutant of mouse Fyn, co-expressed with GFP from pIRES-hrGFP-1a", "values": [{"measurement": "ratio of transfected myoblasts to myotubes", "setting": "[11]; wild type C2C12 cells", "result": "4.9+/−1.7"}]}, {"substance": "dominant-negative mutant of Fyn: Full-length dominant negative K299M mutant of mouse Fyn, co-expressed with GFP from pIRES-hrGFP-1a", "values": [{"measurement": "ratio of transfected myoblasts to myotubes", "setting": "[11]; Sca-1 antisense-expressing cells", "result": "2.3+/−0.7"}]}, {"substance": "monoclonal anti-Sca-1 antibody, clone D7 (Pharmingen)", "values": [{"measurement": "BrdU positive nuclei (proliferation), E13-161.7 and D7 in combination versus untreated (% BrdU positive nuclei)", "setting": "[10]", "result": 11}, {"measurement": "nuclei per myotube (myoblast fusion), E13-161.7 and D7 in combination versus untreated (nuclei per myotube)", "setting": "[10]", "result": 14}]}]}
